Test results published in paper PMC5045942, “Evaluation of a novel PXR‐knockout in HepaRG™ cells” (Pharmacology Research & Perspectives, 2016).
Several values for one entry are separate records, joined by “and”; a condition that tells them apart may be missing. Identical values can stand only once. Like-named read-outs stand apart in the source and are kept apart here.

Tests used:
[1] = system: CYP3A4 mRNA; test: CYP3A4 mRNA induction in HepaRG wild-type cells (real-time PCR); settings: for E max, induction of CYP3A4 mRNA, HepaRG: E max ± SD; for EC50: human
Experimental: (§1) HepaRG cells were thawed in thawing and maintenance medium and plated into 96‐well collagen‐1‐coated plates at a volume of 200 μL/well. The cells were incubated at 37°C in a humidified incubator with 5% CO2 for 72 h. Test compounds were freshly dissolved in DMSO and then serum‐free induction medium to achieve a final DMSO concentration of 0.1% every 24 h.
(§2) mRNA was extracted from the cell monolayers using the SV96 total RNA isolation system according to the manufacturer's instructions. Reverse transcription of mRNA to cDNA was completed using Taqman reverse transcription (RT) assay. […] An Agilent Mx3005P thermocycler was used to run a thermal cycle of: 10 min at 25°C, 30 min at 37°C, 5 min at 95°C, and a hold phase at 4°C.
(§3) An Agilent Mx3005P thermocycler was used to determine the gene expression of selected genes. Real‐time PCR solutions were prepared as described by the manufacturer. Each reaction contained 12.5 μL volume. […] PCR conditions were 15 min at 95°C (to activate polymerase, denature cDNA, and initiate PCR) followed by 40 cycles of 15 sec at 94°C (denaturation), and 60 sec at 60°C (annealing/extension of the product). Fluorescence was measured at the end of each cycle.
(§4) Gene expression data were compared to an average of GAPDH and normalized to the control sample using the comparative threshold cycle (C(t)) method (Ct = 2^−∆∆C(t)). […] Where possible data were fitted to a sigmoidal E max model (WinNonLin Phoenix, Pharsight, 6.3.0.395). All human hepatocyte data are the average of duplicate experiments and three compound concentrations. HepaRG WT are the average of triplicate experiments completed in duplicate. HepaRG 5F and HepaRG PXR‐KO data are the average of duplicate experiments and duplicate replicates of each compound concentration (six concentrations).

[2] = system: CYP3A4 mRNA; test: CYP3A4 mRNA induction in 5F HepaRG control cells (real-time PCR); settings: for EC50 at 48 h: human, 5F HepaRG control cells; for EC50: read-out: EC50, induction of CYP3A4 mRNA, 5F
Experimental: (§5) 5F, CAR‐KO, and PXR‐KO HepaRG cells were thawed in recovery medium and plated into 96‐well collagen‐1‐coated plates at a volume of 200 μL/well. The cells were incubated at 37°C in a humidified incubator with 5% CO2 for 48 h. The recovery medium was replaced with maintenance medium and procedure repeated every Monday, Wednesday, and Friday for 18 days. On day 18, the maintenance medium was replaced with pre‐incubation medium for 72 h. On day 21, the cells were incubated with test compounds in serum‐free induction medium for 48 h. Test compounds were freshly dissolved in DMSO and then serum‐free induction medium to achieve a final DMSO concentration of 0.1% every 24 h. For enzyme induction assays, cells were thawed into recovery medium and plated into 24‐well plates at a volume of 1 mL/well. Culture conditions were as described above.
as §2, §3, §4

[3] = system: CYP2B6 mRNA; test: CYP2B6 mRNA induction in PXR-KO HepaRG cells (real-time PCR); format: in vitro ADME, human; settings: for EC50 for CYP2B6 in PXR-KO cells in comparison to other cell types (in words): PXR-KO vs 5F cells / other cell types; for E max for CYP2B6 in PXR-KO cells in comparison to other cell types (in words): PXR-KO vs 5F, HepaRG WT cells and PHHs; for EC50 at 48 h: human
Experimental: as §5, §2, §3, §4

[4] = system: CYP2B6 mRNA; test: CYP2B6 mRNA induction in HepaRG wild-type cells (real-time PCR); format: in vitro ADME, human; settings: for E max, induction of CYP2B6 mRNA, HepaRG: E max ± SD; for EC50: human, EC50 ± SD
Experimental: as §1, §2, §3, §4

[5] = system: CYP3A4 mRNA
Experimental: as §5, §2, §3, §4

[6] = system: CYP2B6 mRNA; test: CYP2B6 mRNA induction in 5F HepaRG control cells (real-time PCR); format: in vitro ADME, human; settings: for E max, induction of CYP2B6 mRNA, 5F / EC50 / EC50 at 48 h: 5F cells; for EC50 at 48 h: human
Experimental: as §5, §2, §3, §4

[7] = system: CYP2B6 mRNA; test: in vitro; settings: human
Experimental: (§6) Cryopreserved male human hepatocytes were thawed in CHRM and plated into a 96‐well collagen‐1‐coated plate at a density of 7.5 × 10^4 viable cells in 200 μL of CHPM. Trypan blue exclusion was used to determine cell viability with a cut‐off of 85% viability. The cells were incubated at 37°C in a humidified incubator with 5% CO2. Plating medium was replaced with maintenance medium following 4 h incubation and then maintained overnight before 48 h treatment with test compound. Test compounds were freshly dissolved in dimethyl sulfoxide (DMSO) and then culture medium to achieve a final DMSO concentration of 0.1%. A vehicle control of medium with 0.1% DMSO was included in all studies.
as §2, §3
(§7) Gene expression data were compared to an average of GAPDH and normalized to the control sample using the comparative threshold cycle (C(t)) method (Ct = 2^−∆∆C(t)). […] Where possible data were fitted to a sigmoidal E max model (WinNonLin Phoenix, Pharsight, 6.3.0.395). All human hepatocyte data are the average of duplicate experiments and three compound concentrations.

[8] = system: CYP3A4 mRNA; settings: human
Experimental: as §5, §2, §3, §4

[9] = system: CYP3A4 mRNA; remark: listed apart in the source
Experimental: (§8) The cells were incubated at 37°C in a humidified incubator with 5% CO2. Plating medium was replaced with maintenance medium following 4 h incubation and then maintained overnight before 48 h treatment with test compound. Test compounds were freshly dissolved in dimethyl sulfoxide (DMSO) and then culture medium to achieve a final DMSO concentration of 0.1%. A vehicle control of medium with 0.1% DMSO was included in all studies.
as §2, §3, §7

[10] = system: CYP3A4 mRNA; settings: human; remark: listed apart in the source
Experimental: as §1, §2, §3, §4

[11] = system: CYP2B6; test: CYP2B6 enzyme activity induction (bupropion, LC-MS/MS) in PXR-KO and 5F cells; format: in vitro ADME, human; settings: 1.5 μmol/L CITCO, 258 μmol/L phenobarbital; bupropion 100 μmol/L, 2 h; PXR-KO vs 5F cells (Fig. 3)
Experimental: Culture conditions were as described above.
P450 enzyme activity was assessed by incubating whole‐cell monolayers for 2 h at 37°C using 100 μmol/L bupropion (CYP2B6) in unsupplemented Williams E media with a final concentration of 0.1% DMSO. Reactions were quenched by removing supernatants and diluting 1:2 into ice‐cold acetonitrile. Samples were stored at −20°C until LC‐MS/MS analysis was completed.
LC‐MS/MS analysis utilized an API‐4000 Q Trap mass spectrometer with a Turbo V atmospheric pressure electrospray ionization source (AB SCIEX, Framingham, MA). Samples (40 μL) were injected onto a Fortis C18 column (3 × 50 mm, 5 μm) and eluted by a mobile phase gradient specific for each test article (mobile phase A: 0.1% formic acid in water; mobile phase B: 0.1% formic acid in acetonitrile). Flow rate was 0.5 mL/min. MS conditions: positive or negative ionization mode (4.5 kV spray voltage); source temperature of 450°C with multiple reaction monitoring specific for each analyte and internal standard parent–product ion pairs. Peak areas of analyte and internal standard and resulting ratios were quantified using Analyst 1.5.2 (AB SCIEX, Framingham, MA).

[12] = system: CYP3A4 mRNA; test: in vitro; settings: human, EC50, induction of CYP3A4 mRNA, 5F
Experimental: as §5, §2, §3, §4

[13] = system: CYP2B6 mRNA; test: CYP2B6 mRNA induction in cryopreserved primary human hepatocytes (real-time PCR); settings: 48 h; for E max, induction of CYP2B6 mRNA, primary human hepatocyte donor D3: donor D3 (Hu8132)
Experimental: as §6, §2, §3, §7

[14] = system: CYP3A4 mRNA; test: in vitro; settings: human, EC50, induction of CYP3A4 mRNA
Experimental: as §8, §2, §3, §7

[15] = system: CYP3A4 mRNA; test: CYP3A4 mRNA induction in PXR-KO HepaRG cells (real-time PCR)
Experimental: as §5, §2, §3, §4

[16] = system: CYP3A4 mRNA; test: CYP3A4 mRNA induction in cryopreserved primary human hepatocytes (real-time PCR); settings: for EC50 at 48 h: human, cryopreserved primary human hepatocytes
Experimental: as §8, §2, §3, §7

[17] = 5F cells, 48 h, value of each individual experiment (two per cell)
[18] = EC50, induction of CYP3A4 mRNA, 5F, 5F cells, 48 h, value of each individual experiment (two per cell)
[19] = 48 h, value of each individual experiment (two per cell)
[20] = 5F HepaRG control cells, 48 h, value of each individual experiment (two per cell), read-out: EC50, induction of CYP2B6 mRNA, 5F
[21] = donor D1 (Hu1455), NE = no effect observed, relative gene expression fold change <2
[22] = PXR-KO vs 5F, HepaRG WT cells and PHHs
[23] = cryopreserved primary human hepatocytes, donor D1 (Hu1455)
[24] = cryopreserved primary human hepatocytes, donor D3 (Hu8132)
[25] = PXR-KO HepaRG cells, compared with 5F cells

| Compound | E max, induction of CYP3A4 mRNA, HepaRG [1] | EC50 [1] [µM] | E max, induction of CYP3A4 mRNA, 5F [2, 17] | EC50 at 48 h [2, 18] [µM] | EC50 [2, 17] [µM] | EC50 for CYP2B6 in PXR-KO cells in comparison to other cell types (in words) [3] | E max for CYP2B6 in PXR-KO cells in comparison to other cell types (in words) [3] | E max, induction of CYP2B6 mRNA, HepaRG [4] | EC50 [4] [µM] | CYP3A4 induction response in PXR-KO cells (in words) [5] | E max, induction of CYP2B6 mRNA, 5F [6, 19] | EC50 [6, 19] | EC50 at 48 h [6, 20] [µM] | EC50 at 48 h ([3]; PXR-KO HepaRG cells, 48 h) [µM] | CYP2B6-induced activity response [11] | E max, induction of CYP2B6 mRNA, primary human hepatocyte donor D1 [13, 21] | E max, induction of CYP2B6 mRNA, primary human hepatocyte donor D3 [13] | EC50 at 48 h [7, 23] [µM] | EC50 at 48 h [7, 24] [µM] | further results |
| --- | --- | --- | --- | --- | --- | --- | --- | --- | --- | --- | --- | --- | --- | --- | --- | --- | --- | --- | --- | --- |
| O=C1NC(=O)C(c2ccccc2)(c2ccccc2)N1 [Phenytoin, phenytoin] | 89.6 ± 8.1 | 42.6 ± 6.6 | 16.0 and 20.8 | 18.1 | 19.9 | increased | lower | 14.2 ± 3.7 | 2.7 ± 1.7 | much reduced | 7.3 and 10.6 | 7.8 µM | 5.1 | – | – | – | – | – | – | E max for CYP3A4 in PXR-KO cells in comparison to other cell types (in words) [5]: lower; EC50 for CYP3A4 in PXR-KO cells in comparison to other cell types (in words) [5]: increased |
| CCC1(c2ccccc2)C(=O)NC(=O)NC1=O [Phenobarbital, phenobarbital] | – | – | – | – | – | in agreement between the cell lines | – | 68.9 ± 47.3 | 170 ± 6.8 | much reduced | 5.9 and 5.5 | 195 µM | – | 98 | greater in the PXR‐KO cells | 20.2 | 26.3 | – | – | EC50 at 48 h ([7]; male): 186 µM; E max, induction of CYP3A4 mRNA, 5F [8]: 17.3, 28.1; EC50 [8]: 166 µM; E max, induction of CYP3A4 mRNA, primary human hepatocyte donor D2 ([9]; hepatocytes): 13.3; E max, induction of CYP3A4 mRNA, primary human hepatocyte donor D3 ([9]; hepatocytes): 81.8; EC50 ([9]; male, human): 251 µM; E max, induction of CYP3A4 mRNA, HepaRG [10]: 110.0 ± 12.8; E max of CYP2B6 induction in PXR-KO cells ([3]; PXR-KO HepaRG cells, 48 h): 11.8; EC50 [12]: 108 µM; EC50 ([13]; read-out: EC50, induction of CYP2B6 mRNA, primary human hepatocyte donor D1, donor D1 (Hu1455)): 98.9 µM; EC50 ([14]; primary human hepatocyte donor D1): 250 µM; EC50 ([14]; primary human hepatocyte donor D2): 366 µM; EC50 ([14]; primary human hepatocyte donor D3): 177 µM; E max of CYP3A4 induction in PXR-KO cells ([5]; human): 3.3; EC50 at 48 h ([6]; 48 h, value of each individual experiment (two per cell), read-out: EC50, induction of CYP2B6 mRNA, 5F): 145 µM |
| NC(=O)N1c2ccccc2C=Cc2ccccc21 [Carbamazepine, carbamazepine] | 33.5 ± 12.6 | 24 ± 12.2 | 29.3 and 21.6 | 37.4 | – | increased | lower | 10.7 ± 4.3 | 12 ± 7.3 | – | 3.1 and 7.4 | 5.4 µM | 8.4 | – | – | – | – | – | – | E max for CYP3A4 in PXR-KO cells in comparison to other cell types (in words) [15, 22]: ~four‐fold lower; EC50 for CYP3A4 in PXR-KO cells in comparison to other cell types (in words) [15, 22]: similar; EC50 at 48 h ([15]; human, PXR-KO HepaRG cells): 49 µM; EC50 at 48 h ([2]; EC50 of CYP3A4 induction in 5F cells, single value given in text, data the average of two experiments): 38 µM |
| CO[C@H]1/C=C/O[C@@]2(C)Oc3c(C)c(O)c4c(O)c(c(/C=N/N5CCN(C)CC5)c(O)c4c3C2=O)NC(=O)/C(C)=C\C=C\[C@H](C)[C@H](O)[C@@H](C)[C@@H](O)[C@@H](C)[C@H](OC(C)=O)[C@@H]1C [Rifampicin, rifampicin] | – | – | – | – | – | – | – | 5.2 ± 2.9 | 0.3 ± 0.2 | – | 18.9 and 12.9 | 1.7 µM and 0.7 µM | – | – | – | 3.9 | 16.3 | 0.1 | 5.5 | EC50 at 48 h ([7]; cryopreserved primary human hepatocytes, donor D2 (Hu1601)): 5.2 µM; CYP2B6 induction response in PXR-KO cells (in words) [3, 25]: No response; E max, induction of CYP2B6 mRNA, primary human hepatocyte donor D2 ([13]; donor D2 (Hu1601), NE = no effect observed, relative gene expression fold change <2): 4.3 |
| Clc1ccc(-c2nc3sccn3c2C=NOCc2ccc(Cl)c(Cl)c2)cc1 [CITCO, 6‐(4‐chlorophenyl)imidazo[2,1‐b][1,3]thiazole‐5‐carbaldehyde O‐(3,4‐dichlorobenzyl)oxime] | 21.1 ± 4.6 | 1.5 ± 0.1 | 6.4 and 7.1 | 1.9 | 2 | – | similar | 14.2 ± 7.4 | 0.03 ± 0.01 | – | 17.0 and 22.5 | 1 µM | – | 0.3 | greater in the PXR‐KO cells | 6.0 | 5.5 | 0.2 | 0.3 | E max, induction of CYP3A4 mRNA, primary human hepatocyte donor D1 ([16]; donor D1 (Hu1455), 48 h): 3.5; E max, induction of CYP3A4 mRNA, primary human hepatocyte donor D3 ([16]; donor D3 (Hu8132), 48 h): 2.3; EC50 at 48 h ([16]; donor D1 (Hu1455)): 0.3 µM; EC50 at 48 h ([16]; donor D3 (Hu8132)): 0.4 µM; CYP3A4 induction response in PXR-KO cells (in words) [15, 25]: maintained; CYP2B6 induction response in 5F cells (in words) [6]: responsive; EC50 at 48 h ([6]; 5F HepaRG control cells, single value given in text, data the average of two experiments, read-out: EC50 of CYP2B6 induction in 5F cells): 0.5 µM |
